Experimental data reported in patent publication US20050171214A1, “Medicament for improving the failure of accommodation” (Fuji Chemical Industry Co., Ltd., priority 2001, published 2005).
Several values for one entry are separate records, joined by “and”; a condition that tells them apart may be missing. Equal values may be shown once.

Experiments:
Format in all cases: in vivo, human
[1] = test system: person having subjective symptoms of eyestrain or working for VDT operation; test: Example 1: double-blind accommodability test with an accommodometer, test food vs control food for 4 weeks; conditions: intake of astaxanthin for 4 consecutive weeks; difference not recognized in control group
Source text: People satisfying the following selection standards were used as subjects.
(1) A person having subjective symptoms of eyestrain or working for VDT operation, (2) 1.0 or more of both eyes in vision after correction. (3) 35-59 years old, (4) persons who do notusually take any medicines or health foods, (5) a person who can keep in compliance with all the test-related requirements and take the medical examinations stipulated by the test method.
Persons who have retinal disorders or cataracts were excluded from the subjects.
A test food with 5 mg /capsule of astaxanthin and a control food with 0 mg /capsule of astaxanthin were prepared. The test was conducted in a double-blind method.
After completion of the accommodability test for the subjects using an accommodometer by which the change in the refraction value (accommodation reaction) during moving object can be measured continuously and objectively, and accommodation abnormalities including VDT syndrome can be detected clearly.
A person in charge of the test prepared a subjects' name-list stratified by sex and the test results and handed it to a controller. The controller prepared an allocation table separating the subjects into test food group and control food group based on the name list. In addition, the controller stuck each label with a subject's name on the test food or control food according to the allocation table. […]

VDT workers [2] = test: Example 2: eye-accommodability (near point minus far point, D'Acomo apparatus), double-blind vs placebo; conditions: mean ± SD, dioptres
Experimental: (§1) As a control, 13 persons who have not been administered astaxanthin and have not worked in a VDT operation were indicated as the A group. 26 VDT workers were divided into two groups at random. The B group (13 persons) was orally administered 5 mg of astaxanthin/day for 4 consecutive weeks while the C group (13 persons) was orally administered a placebo for 4 consecutive weeks. No significant difference was recognized in age among the three groups.
(§2) A double-blind test was conducted for the B and C groups.
Also, 26 workers were selected who had been engaged in a VDT operation for 4 hours per day, for 5 days (Monday to Friday every week) per week and for a year or more. […]
The eye-accommodability was evaluated by measurement of the near and far points.
The near point was measured with a D'Acomo apparatus (binocular opening constant point refraction near point ruler, a product of World Optical Corporation) according to the Uozato et al' method (Uozato H, Nagakawa A, Hirai H, Saishin M: A new near-point ruler using constant dioptric stimulus. Folia Ophthalmol Jpn 1988;39:1247-1248).
The far point was measured in the best-corrected refraction for each of the subjects.
The eye-accommodability (dioptres) was calculated by subtracting the far point (dioptres) from the near point (dioptres).
The data on before and after administration were analyzed statistically using a paired t-test. […]

VDT workers [3] = test: Example 2: critical flicker fusion (C.F.F. tester)
Experimental: as §1, §2
(§3) Also, 26 workers were selected who had been engaged in a VDT operation for 4 hours per day, for 5 days (Monday to Friday every week) per week and for a year or more. Their eyes were better than twenty-twenty (20/20). All of them wore eyeglasses for accommodation during the VDT operation.
(§4) A double-blind test was conducted with respect to the VDT workers. The VDT workers were divided into an astaxanthin-administration group (n=13, B group) and placebo-administration group (n=13, C group). There was no difference in age among the three groups (Table 2 shown below).
(§5) An astaxanthin capsule (5 mg/capsule) was orally administrated to each of the B group subjects one time a day 30 minutes before supper.
(§6) All of these measurement items were conducted with each right eye of the subjects at a.m. 9:00-12:00 on a Saturday.
The critical flicker fusion was determined by decreasing the frequency of the signals at a constant speed using a C.F.F. tester (a product of Yagami Co., Ltd.). There was used the average value of the three times value measured by the individual eyes of the subjects.
(§7) The data on before and after administration were analyzed statistically using a paired t-test. Also, the data for the A and B groups and those for the A and C groups were measured in an unpaired test. The probability value is below 0.05 that is considered to be significant.

VDT workers [4] = test: Example 2: pattern visual evoked potentials (P100 amplitude and latency)
Experimental: as §1, §2, §3, §4, §5, §6
The pattern visual evoked potential was recorded according to the method established by the International Society for Clinical Electrophysiology of Vision to measure one positive peak strength (P100) and the latency (the difference […] between N75 peak and P100 peak).
as §7

VDT workers [5] = test: Example 2: eyesight at 5 m and 35 cm using a Landolt ring; conditions: B group, 5 mg/day orally for 4 weeks
Experimental: as §3, §4, §5
The eyesight was measured at each distance of 5 m and 35 cm using a Landolt ring.

VDT workers [6] = test: Example 2: systemic side effects during 4-week administration; conditions: B group, 5 mg/day orally for 4 weeks
Experimental: as §1, §5

[7] = B group baseline, n = 13 eye, mean ± SD
[8] = B group, 5 mg/day orally for 4 weeks, n = 13 eye, mean ± SD
[9] = B group, 5 mg/day orally for 4 weeks, vs before administration

CC1=C(/C=C/C(C)=C/C=C/C(C)=C/C=C/C=C(C)/C=C/C=C(C)/C=C/C2=C(C)C(=O)C(O)CC2(C)C)C(C)(C)CC(O)C1=O (stereo not drawn) [astaxanthin, 3,3′-dihydroxy-β,β-carotene-4,4′-dione]
Change of eye-accommodability, before vs after intake [1]: increased in the test food group by a statistically significant difference | Accommodability (D), before administration of astaxanthin (VDT workers [2]; B group baseline, n = 13 eye (right eye), p<0.05 lower than non-VDT A group (3.7 ± 1.5)): 2.3 ± 1.4 D | Accommodability (D), after administration of astaxanthin (VDT workers [2]; B group, 5 mg astaxanthin/day orally for 4 consecutive weeks, n = 13 eye, p<0.01 vs before administration): 2.8±1.6 D | CFF (Hz), before administration of astaxanthin (VDT workers [3]; [7]): 39.9 ± 5.3 Hz | CFF (Hz), after administration of astaxanthin (VDT workers [3]; [8]): 38.4 ± 4.8 Hz | Change of critical flicker fusion after administration (VDT workers [3]; [9]): did not (appreciably) change | PVEP-P100 Amplitude (μV), before administration of astaxanthin (VDT workers [4]; [7]): 5.8±1.7 μV | PVEP-P100 Latency (msec), before administration of astaxanthin (VDT workers [4]; [7]): 102.5 ± 6.9 ms | PVEP-P100 Amplitude (μV), after administration of astaxanthin (VDT workers [4]; [8]): 5.6±1.6 μV | PVEP-P100 Latency (msec), after administration of astaxanthin (VDT workers [4]; [8]): 104 ± 7.4 ms and 104.8 ± 7.4 ms | Change of amplitude of P100 in pattern visual evoked potentials after administration (VDT workers [4]; [9]): did not appreciably change | Change of latency of P100 in pattern visual evoked potentials after administration (VDT workers [4]; [9]): did not appreciably change | Change of eyesight at distances of 5 m and 35 cm, before vs after administration (VDT workers [5]): did not appreciably change | Systemic side effects (VDT workers [6]): no systemic side effects were recognized
